Test results published in US20080312212A1, “Organic Compounds” (Novartis AG, priority 2005, published 2008).
Structures can show the parent of a compound that is named as a salt.

Target: T1, epithelial sodium channel (ENaC) (Homo sapiens, UniProt P37088+P51168+P51170)
T1 construct: host or cells: primary human bronchial epithelial cells (HBECs), differentiated at air-liquid interface
T1 sequence (P37088 1-669): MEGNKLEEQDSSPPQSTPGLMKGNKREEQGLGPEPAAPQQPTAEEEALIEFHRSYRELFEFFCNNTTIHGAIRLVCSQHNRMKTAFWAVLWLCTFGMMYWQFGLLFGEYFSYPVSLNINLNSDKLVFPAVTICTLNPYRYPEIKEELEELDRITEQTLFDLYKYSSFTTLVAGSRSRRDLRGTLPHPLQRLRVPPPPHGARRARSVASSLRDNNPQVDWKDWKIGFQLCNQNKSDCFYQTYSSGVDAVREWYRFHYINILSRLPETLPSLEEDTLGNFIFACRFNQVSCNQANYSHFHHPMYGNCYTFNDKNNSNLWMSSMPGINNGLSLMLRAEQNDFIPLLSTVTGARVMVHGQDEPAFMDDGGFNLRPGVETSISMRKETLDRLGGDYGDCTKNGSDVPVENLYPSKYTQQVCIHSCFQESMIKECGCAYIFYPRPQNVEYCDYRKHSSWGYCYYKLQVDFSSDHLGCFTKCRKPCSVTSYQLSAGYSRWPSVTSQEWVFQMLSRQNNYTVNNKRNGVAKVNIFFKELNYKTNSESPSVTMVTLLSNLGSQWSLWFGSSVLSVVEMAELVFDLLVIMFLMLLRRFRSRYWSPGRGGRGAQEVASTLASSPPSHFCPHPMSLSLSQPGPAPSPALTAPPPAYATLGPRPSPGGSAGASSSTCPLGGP
T1 sequence (P51168 1-640): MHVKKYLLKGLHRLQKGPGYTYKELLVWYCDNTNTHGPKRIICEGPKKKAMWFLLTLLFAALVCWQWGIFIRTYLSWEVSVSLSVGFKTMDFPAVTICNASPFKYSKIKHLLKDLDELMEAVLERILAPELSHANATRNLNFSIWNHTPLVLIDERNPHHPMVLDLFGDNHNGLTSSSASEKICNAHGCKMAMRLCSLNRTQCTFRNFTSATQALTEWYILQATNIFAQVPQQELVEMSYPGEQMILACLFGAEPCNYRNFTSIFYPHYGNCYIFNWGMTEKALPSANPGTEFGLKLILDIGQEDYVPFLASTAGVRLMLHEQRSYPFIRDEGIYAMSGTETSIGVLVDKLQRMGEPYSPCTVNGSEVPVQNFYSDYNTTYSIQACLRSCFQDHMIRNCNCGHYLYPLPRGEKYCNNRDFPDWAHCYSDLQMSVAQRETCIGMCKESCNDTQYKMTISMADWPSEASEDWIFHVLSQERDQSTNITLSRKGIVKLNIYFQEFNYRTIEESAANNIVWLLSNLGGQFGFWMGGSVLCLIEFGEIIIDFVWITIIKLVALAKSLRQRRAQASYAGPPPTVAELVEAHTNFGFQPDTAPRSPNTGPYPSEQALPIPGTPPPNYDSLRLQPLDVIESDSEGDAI
T1 sequence (P51170 1-649): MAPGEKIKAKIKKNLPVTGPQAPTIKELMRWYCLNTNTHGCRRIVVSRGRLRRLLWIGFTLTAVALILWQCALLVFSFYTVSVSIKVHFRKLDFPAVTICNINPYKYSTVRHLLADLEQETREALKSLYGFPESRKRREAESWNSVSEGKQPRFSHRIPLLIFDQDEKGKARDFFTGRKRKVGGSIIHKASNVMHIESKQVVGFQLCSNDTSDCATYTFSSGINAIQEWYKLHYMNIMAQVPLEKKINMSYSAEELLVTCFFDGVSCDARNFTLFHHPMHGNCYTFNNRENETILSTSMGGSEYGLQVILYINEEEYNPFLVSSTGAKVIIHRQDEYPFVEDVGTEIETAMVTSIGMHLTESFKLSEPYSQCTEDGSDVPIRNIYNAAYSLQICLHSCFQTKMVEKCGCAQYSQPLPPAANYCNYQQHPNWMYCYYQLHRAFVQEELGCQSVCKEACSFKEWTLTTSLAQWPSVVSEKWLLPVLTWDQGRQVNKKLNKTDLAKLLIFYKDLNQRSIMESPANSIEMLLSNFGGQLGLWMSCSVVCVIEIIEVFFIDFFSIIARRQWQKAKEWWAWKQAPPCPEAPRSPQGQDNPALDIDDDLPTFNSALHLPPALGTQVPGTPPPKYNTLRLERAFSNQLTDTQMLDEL
Experiment: Short circuit current (ISC) measurements in Human Bronchial Epithelial cells
Format: cell-based
Details: HBECs at air-liquid interface, Ussing chamber, apical addition; read-out: IC50 (inhibition of the amiloride-sensitive ISC)
Description: Human Bronchial Epithelial cells (HBECs) (Cambrex) were cultured under air-liquid interface conditions to provide a well differentiated mucociliary phenotype.
HBECs were cultured using a modification of the method described by Gray and colleagues
(Gray et al., 1996). Cells were seeded in plastic T-162 flasks and were grown in bronchial epithelial cell growth medium (BEGM; Cambrex) supplemented with bovine pituitary extract (52 μg/mL), hydrocortisone (0.5 μg/mL), human recombinant epidermal growth factor ([…]), epinephrine (0.5 μg/mL), transferrin (10 μg/mL), insulin (5 μg/mL), retinoic acid (0.1 μg/mL), triiodothyronine ([…]), gentamycin (50 μg/mL) and amphotericin B (50 μg/mL). Medium was changed every 48 hours until cells were 90% confluent. Cells were then passaged and seeded (8.25×10^5 cells/insert) on polycarbonate Snapwell inserts (Costar) in differentiation media containing 50% DMEM in BEGM with the same supplements as above but without triiodothyronine and a final retinoic acid concentration of 50 nM (all-trans retinoic acid). Cells were maintained submerged for the first 7 days in culture, after which time they were exposed to an apical air interface for the remainder of the culture period. At this time, media was changed to DMEM:F12 media containing 2% v/v Ultroser G for the remainder of culture. Amphotericin B was removed from all media 3 feeds prior to use in the Ussing Chambers. Cells were used between days 7 and 21 after establishment of the apical-air interface. At all stages of culture, cells were maintained at 37° C. in 5% CO2 in an air incubator.
Snapwell inserts were mounted in Vertical Diffusion Chambers (Costar) and were bathed with continuously gassed Ringer solution (5% CO2 in O2; pH 7.4) maintained at 37° C. containing (in mM): 120 NaCl, 25 NaHCO3, 3.3 KH2PO4, 0.8 K2HPO4, 1.2 CaCl2, 1.2 MgCl2, and 10 glucose. The solution osmolarity was between 280 and 300 mOsmol/kg H2O for all physiological salt solutions used. Cells were voltage clamped to 0 mV (model EVC4000; WPI). RT was measured by applying a 1- or 2-mV pulse at 30-s intervals and calculating RT by Ohm's law. Data were recorded using a PowerLab workstation (ADInstruments).
Test compounds were prepared as a 10 mM stock solution in DMSO (95%). Serial 3-fold dilutions were freshly prepared in an appropriate vehicle (distilled H2O or Ringers solution). […] At the completion of the concentration-response experiment, amiloride (10 μM) was added into the apical chamber to enable the total amiloride-sensitive current to be measured. […]
Results are expressed as the mean % inhibition of the amiloride-sensitive ISC. […] Cell inserts were typically run in duplicate and the IC50 calculated on the mean % inhibition data.

IC50 [nM] | SMILES
18 | N=C(NCCCCNC(=O)Cc1ccccc1)NC(=O)c1nc(Cl)c(N)nc1N [Example 25]
16.4 | N=C(NCCCCCCNS(=O)(=O)c1cccc2ccccc12)NC(=O)c1nc(Cl)c(N)nc1N [Example 3]
33 | COC(=O)[C@H](CCCCNC(=N)NC(=O)c1nc(Cl)c(N)nc1N)NS(=O)(=O)c1ccc(C)cc1 [Example 17, (S)-6-[N′-(3,5-Diamino-6-chloro-pyrazine-2-carbonyl)-guanidino]-2-(toluene-4 sulfonylamino)-hexanoic acid methyl ester trifluoroacetate]

SMILES | IC50 [nM]
N=C(NCCCC(=O)N(Cc1ccccc1)[C@H]1CC2CC[C@H](C1)N2Cc1ccccc1)NC(=O)c1nc(Cl)c(N)nc1N [Example 12] | 65.9
